Key:
Design in all cases: Invitrogen kinase panel, per cent inhibition of kinase activity
Conditions in all cases: 10 µM, inhibitor
MEK1 = target: T1, MEK1 (Homo sapiens, UniProt Q02750)
T1 construct: gene MAP2K1
Protocol: (§1) To discover a potent and selective BDK inhibitor, a subset of the Pfizer compound collection was screened. […] Off target activity was assessed in both CEREP and kinase panels (Supplementary Tables 2, 3).

mixed lineage kinase 1 = target: T2, mixed lineage kinase 1 (Homo sapiens, UniProt P80192)
T2 construct: gene MAP3K9
In short: (§2)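 Activity was measured in a kinase selectivity panel. The data come from off-target testing of the same BDK inhibitors.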

PIK3CD = PIK3CD (Homo sapiens, UniProt O00329)
In short: as §2

MAPK1 = MAPK1 (Homo sapiens, UniProt P28482)
Protocol: as §1

Rsk1 = target: T3, Rsk1 (Homo sapiens, UniProt Q15418)
T3 construct: gene RPS6KA1
In short: as §2

JNK2 = target: T4, JNK2 (Homo sapiens, UniProt P45984)
T4 construct: gene MAPK9
Protocol: as §1

PDPK1 = target: T5, PDPK1 (Homo sapiens, UniProt O15530)
T5 sequence (O15530 1-556): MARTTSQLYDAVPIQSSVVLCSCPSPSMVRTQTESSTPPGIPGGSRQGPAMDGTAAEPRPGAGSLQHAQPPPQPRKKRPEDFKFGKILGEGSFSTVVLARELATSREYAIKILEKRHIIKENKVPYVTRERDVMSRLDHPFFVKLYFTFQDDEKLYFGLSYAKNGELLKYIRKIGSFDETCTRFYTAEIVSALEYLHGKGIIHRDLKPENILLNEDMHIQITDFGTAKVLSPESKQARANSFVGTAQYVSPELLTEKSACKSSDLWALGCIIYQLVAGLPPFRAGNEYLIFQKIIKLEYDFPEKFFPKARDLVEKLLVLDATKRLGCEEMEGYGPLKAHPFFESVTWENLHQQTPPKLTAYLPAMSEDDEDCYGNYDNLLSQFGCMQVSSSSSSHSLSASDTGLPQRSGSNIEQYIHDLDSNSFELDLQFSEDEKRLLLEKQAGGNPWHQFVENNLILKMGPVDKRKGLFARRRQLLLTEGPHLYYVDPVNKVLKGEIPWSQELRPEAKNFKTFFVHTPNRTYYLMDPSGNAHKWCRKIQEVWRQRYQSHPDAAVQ
Protocol: as §1

MAPKAPK2 = MAPKAPK2 (Homo sapiens, UniProt P49137)
Protocol: as §1

[1] = target: T6, Mitogen-Activated Protein Kinase Kinase Kinase Kinase 4 (MAPK4K4) (Homo sapiens, UniProt O95819)
T6 construct: gene MAP4K4
Protocol: as §1

SPHK1 = SPHK1 (Homo sapiens, UniProt Q9NYA1)
In short: as §2

MET = MET (Homo sapiens, UniProt P08581)
Protocol: as §1

MARK1 = MARK1 (Homo sapiens, UniProt Q9P0L2)
Protocol: as §1

ROCK2 = ROCK2 (Homo sapiens, UniProt O75116)
In short: as §2

CKI-delta = target: T7, CKI-delta (Homo sapiens, UniProt P48730)
T7 construct: gene CSNK1D
In short: as §2

FGFR1 = FGFR1 (Homo sapiens, UniProt P11362)
Protocol: as §1

MKNK1 = MKNK1 (Homo sapiens, UniProt Q9BUB5)
In short: as §2

MARK3 = MARK3 (Homo sapiens, UniProt P27448)
In short: as §2

AKT1 = AKT1 (Homo sapiens, UniProt P31749)
Protocol: as §1

JNK1 = target: T8, JNK1 (Homo sapiens, UniProt P45983)
T8 construct: gene MAPK8
Protocol: as §1

CDK2/Cyclin-A = CDK2/Cyclin-A (Homo sapiens, UniProt P24941)
Protocol: as §1

BTK = BTK (Homo sapiens, UniProt Q06187)
Protocol: as §1

PIK3CG = PIK3CG (Homo sapiens, UniProt P48736)
In short: as §2

MARK1, sequence (Q9P0L2 whole entry): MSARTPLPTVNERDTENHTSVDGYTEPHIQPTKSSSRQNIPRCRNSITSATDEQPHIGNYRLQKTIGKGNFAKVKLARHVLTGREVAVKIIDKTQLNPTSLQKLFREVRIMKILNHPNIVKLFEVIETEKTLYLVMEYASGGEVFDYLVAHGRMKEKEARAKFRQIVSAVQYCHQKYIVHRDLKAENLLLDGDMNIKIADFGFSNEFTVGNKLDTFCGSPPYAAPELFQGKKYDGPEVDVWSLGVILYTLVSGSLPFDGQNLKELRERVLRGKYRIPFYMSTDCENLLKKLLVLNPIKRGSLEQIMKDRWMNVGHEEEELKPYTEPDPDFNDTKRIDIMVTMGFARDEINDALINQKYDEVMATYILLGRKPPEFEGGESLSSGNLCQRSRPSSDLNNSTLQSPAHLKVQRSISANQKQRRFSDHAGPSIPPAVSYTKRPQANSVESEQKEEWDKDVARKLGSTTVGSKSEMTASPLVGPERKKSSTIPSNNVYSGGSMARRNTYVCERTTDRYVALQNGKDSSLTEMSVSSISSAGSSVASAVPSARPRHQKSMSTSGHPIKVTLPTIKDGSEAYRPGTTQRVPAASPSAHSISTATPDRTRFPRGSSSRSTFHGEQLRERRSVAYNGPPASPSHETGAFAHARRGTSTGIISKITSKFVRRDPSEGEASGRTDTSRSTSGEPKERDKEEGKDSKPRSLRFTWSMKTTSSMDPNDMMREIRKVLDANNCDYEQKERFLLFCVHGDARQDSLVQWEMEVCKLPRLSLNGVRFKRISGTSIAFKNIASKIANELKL
MAPK1, sequence (P28482 whole entry): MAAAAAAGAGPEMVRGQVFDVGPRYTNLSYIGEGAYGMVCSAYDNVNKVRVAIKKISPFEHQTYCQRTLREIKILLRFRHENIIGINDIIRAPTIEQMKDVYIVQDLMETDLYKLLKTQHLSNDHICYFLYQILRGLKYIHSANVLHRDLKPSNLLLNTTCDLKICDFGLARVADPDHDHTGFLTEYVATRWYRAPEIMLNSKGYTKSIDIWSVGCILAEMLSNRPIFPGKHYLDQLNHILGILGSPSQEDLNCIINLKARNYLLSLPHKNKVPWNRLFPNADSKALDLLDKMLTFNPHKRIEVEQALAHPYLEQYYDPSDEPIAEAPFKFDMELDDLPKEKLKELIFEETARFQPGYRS
BTK, sequence (Q06187 whole entry): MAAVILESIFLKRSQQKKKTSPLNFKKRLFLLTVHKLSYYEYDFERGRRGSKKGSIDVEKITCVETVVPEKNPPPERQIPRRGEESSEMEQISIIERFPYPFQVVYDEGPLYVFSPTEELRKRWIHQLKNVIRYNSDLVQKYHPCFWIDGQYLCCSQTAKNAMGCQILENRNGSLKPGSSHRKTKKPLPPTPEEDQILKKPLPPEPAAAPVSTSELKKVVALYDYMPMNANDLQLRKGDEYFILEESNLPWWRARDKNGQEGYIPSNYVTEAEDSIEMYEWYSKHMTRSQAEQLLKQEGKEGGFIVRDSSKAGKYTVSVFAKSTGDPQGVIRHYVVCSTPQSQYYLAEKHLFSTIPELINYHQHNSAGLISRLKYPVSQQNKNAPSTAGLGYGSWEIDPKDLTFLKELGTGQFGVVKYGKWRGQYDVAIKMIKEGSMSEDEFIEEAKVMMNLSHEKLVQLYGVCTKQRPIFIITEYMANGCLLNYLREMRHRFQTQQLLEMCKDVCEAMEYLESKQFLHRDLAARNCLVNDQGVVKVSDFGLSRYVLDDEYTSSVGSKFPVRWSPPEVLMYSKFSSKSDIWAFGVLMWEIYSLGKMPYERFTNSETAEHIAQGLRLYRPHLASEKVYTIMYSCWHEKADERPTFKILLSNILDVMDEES
T6 sequence (O95819 whole entry): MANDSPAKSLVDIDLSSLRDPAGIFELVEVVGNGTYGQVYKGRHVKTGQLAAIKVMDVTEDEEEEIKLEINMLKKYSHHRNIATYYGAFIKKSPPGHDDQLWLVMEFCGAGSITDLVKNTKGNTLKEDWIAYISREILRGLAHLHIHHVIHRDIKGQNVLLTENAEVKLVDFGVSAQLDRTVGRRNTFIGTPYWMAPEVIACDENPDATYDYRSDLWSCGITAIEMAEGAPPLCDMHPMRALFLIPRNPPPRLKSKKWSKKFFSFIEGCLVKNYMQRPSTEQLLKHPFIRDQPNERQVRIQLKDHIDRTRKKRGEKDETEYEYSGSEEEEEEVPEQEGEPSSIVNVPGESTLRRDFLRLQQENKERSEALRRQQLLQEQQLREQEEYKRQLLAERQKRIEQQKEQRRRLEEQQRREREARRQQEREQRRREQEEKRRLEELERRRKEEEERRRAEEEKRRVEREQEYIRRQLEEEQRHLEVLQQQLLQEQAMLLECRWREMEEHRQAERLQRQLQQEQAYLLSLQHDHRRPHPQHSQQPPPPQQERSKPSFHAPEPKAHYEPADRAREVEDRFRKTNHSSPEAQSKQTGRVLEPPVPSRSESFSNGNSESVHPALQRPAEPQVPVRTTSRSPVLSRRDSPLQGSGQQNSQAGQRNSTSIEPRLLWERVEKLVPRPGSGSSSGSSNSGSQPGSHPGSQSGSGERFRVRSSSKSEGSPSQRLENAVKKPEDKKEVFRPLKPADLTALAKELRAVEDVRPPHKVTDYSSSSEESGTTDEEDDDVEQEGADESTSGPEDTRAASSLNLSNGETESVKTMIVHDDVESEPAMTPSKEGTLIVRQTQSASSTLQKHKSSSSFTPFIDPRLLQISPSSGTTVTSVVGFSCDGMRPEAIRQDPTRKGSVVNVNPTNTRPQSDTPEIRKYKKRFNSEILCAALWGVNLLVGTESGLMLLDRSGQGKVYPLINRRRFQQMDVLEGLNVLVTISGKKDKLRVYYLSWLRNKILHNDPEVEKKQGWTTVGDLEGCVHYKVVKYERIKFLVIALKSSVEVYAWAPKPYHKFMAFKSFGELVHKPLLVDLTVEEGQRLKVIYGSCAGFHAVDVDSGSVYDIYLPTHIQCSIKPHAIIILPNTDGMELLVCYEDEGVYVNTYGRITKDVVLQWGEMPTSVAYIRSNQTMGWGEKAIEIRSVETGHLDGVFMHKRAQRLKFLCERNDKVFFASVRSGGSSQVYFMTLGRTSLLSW
MET, sequence (P08581 whole entry): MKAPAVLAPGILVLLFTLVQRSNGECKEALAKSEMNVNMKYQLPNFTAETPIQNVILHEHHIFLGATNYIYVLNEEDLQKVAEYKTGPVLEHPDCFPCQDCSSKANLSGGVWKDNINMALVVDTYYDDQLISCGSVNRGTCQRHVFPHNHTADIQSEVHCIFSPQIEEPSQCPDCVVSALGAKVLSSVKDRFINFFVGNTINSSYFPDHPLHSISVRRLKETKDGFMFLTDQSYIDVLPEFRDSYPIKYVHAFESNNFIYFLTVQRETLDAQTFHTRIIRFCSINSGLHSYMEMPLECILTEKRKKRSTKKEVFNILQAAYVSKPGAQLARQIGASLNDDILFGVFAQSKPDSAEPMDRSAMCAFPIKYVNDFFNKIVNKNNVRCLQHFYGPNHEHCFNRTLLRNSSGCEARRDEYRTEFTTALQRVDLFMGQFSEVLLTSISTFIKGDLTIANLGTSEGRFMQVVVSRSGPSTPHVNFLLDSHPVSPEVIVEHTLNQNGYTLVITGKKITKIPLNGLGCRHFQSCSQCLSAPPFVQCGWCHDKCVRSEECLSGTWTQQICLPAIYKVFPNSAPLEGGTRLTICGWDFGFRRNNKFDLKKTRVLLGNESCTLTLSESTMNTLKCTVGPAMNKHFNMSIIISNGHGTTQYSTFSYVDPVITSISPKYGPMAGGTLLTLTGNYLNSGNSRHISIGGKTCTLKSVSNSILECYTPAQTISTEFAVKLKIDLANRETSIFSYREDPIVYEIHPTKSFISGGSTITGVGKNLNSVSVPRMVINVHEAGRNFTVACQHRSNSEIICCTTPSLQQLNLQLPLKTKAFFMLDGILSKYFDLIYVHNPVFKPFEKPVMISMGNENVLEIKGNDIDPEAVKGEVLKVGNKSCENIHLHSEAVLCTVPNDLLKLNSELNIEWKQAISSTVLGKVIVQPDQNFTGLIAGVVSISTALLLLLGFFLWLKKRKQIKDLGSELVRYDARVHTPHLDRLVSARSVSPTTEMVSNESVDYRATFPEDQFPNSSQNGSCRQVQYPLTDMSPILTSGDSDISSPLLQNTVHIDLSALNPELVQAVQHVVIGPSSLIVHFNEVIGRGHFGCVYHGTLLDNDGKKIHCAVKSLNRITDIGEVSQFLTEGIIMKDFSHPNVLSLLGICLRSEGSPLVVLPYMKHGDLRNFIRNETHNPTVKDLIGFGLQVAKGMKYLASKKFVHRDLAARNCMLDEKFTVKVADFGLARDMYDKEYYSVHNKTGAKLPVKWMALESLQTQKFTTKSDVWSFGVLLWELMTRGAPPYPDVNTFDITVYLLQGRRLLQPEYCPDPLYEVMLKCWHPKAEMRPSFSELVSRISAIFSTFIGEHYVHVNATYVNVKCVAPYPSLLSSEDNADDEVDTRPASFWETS
AKT1, sequence (P31749 whole entry): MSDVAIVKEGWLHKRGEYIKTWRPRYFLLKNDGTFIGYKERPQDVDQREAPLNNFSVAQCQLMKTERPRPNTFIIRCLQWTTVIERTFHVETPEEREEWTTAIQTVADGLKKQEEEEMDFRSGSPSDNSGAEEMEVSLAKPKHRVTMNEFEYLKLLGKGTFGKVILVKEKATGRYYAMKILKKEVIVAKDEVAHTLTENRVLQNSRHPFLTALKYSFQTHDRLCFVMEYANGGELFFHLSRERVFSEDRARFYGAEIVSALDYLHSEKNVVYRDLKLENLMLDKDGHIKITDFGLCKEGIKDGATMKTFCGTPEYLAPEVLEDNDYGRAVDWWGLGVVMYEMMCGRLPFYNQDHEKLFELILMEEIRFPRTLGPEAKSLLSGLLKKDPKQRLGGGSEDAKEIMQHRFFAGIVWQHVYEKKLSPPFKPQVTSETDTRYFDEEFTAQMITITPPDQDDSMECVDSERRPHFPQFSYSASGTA

O=C(O)c1sc2cc(F)sc2c1Cl [PF-07208254, 3-chloro-5-fluorothieno[3,2-b]thiophene-2-carboxylic acid]
ATP = 100 uM % Inhibition PF-07208254 (MEK1): 4.1% | ATP = Km % Inhibition PF-07208254 (mixed lineage kinase 1): 3.2% | ATP = Km % Inhibition PF-07208254 (PIK3CD): 6.4% | ATP = 1 mM % Inhibition PF-07208254 (MAPK1): 2.8% | ATP = Km % Inhibition PF-07208254 (MAPK1): 9.4% | ATP = Km % Inhibition PF-07208254 (Rsk1): 3.3% | ATP = 100 uM % Inhibition PF-07208254 (JNK2): -3.0% | ATP = 1 mM % Inhibition PF-07208254 (PDPK1): -3.1% | ATP = Km % Inhibition PF-07208254 (PDPK1): -3.2% | ATP = 1 mM % Inhibition PF-07208254 (MAPKAPK2): -1.5% | ATP = Km % Inhibition PF-07208254 (MAPKAPK2): 3.4% | ATP = 1 mM % Inhibition PF-07208254 [1]: -7.5% | ATP = Km % Inhibition PF-07208254 [1]: 11.9% | ATP = Km % Inhibition PF-07208254 (SPHK1): -15.9% | ATP = 1 mM % Inhibition PF-07208254 (MET): -10.2% | ATP = Km % Inhibition PF-07208254 (MET): -3.1% | ATP = 1 mM % Inhibition PF-07208254 (MARK1): 8.4% | ATP = Km % Inhibition PF-07208254 (MARK1): 2.1% | ATP = Km % Inhibition PF-07208254 (ROCK2): -5.8% | ATP = Km % Inhibition PF-07208254 (CKI-delta): 9.1% | ATP = 1 mM % Inhibition PF-07208254 (FGFR1): -0.5% | ATP = Km % Inhibition PF-07208254 (FGFR1): -0.5% | ATP = Km % Inhibition PF-07208254 (MKNK1): 15.1% | ATP = Km % Inhibition PF-07208254 (MARK3): 5.0% | ATP = 1 mM % Inhibition PF-07208254 (AKT1): -0.8% | ATP = Km % Inhibition PF-07208254 (AKT1): 6.7% | ATP = 100 uM % Inhibition PF-07208254 (JNK1): -0.6% | ATP = 1 mM % Inhibition PF-07208254 (CDK2/Cyclin-A): -1.2% | ATP = Km % Inhibition PF-07208254 (CDK2/Cyclin-A): 14.6% | ATP = 1 mM % Inhibition PF-07208254 (BTK): 0.8% | ATP = Km % Inhibition PF-07208254 (BTK): 5.9% | ATP = Km % Inhibition PF-07208254 (PIK3CG): 4.8%

CCC1(COc2ccc(-c3csc(-c4ccccc4C(=O)O)n3)cn2)CC1 [PF-07247685, 2-(4-{6-[(1-ethylcyclopropyl)methoxy]pyridin-3-yl}-1,3-thiazol-2-yl)benzoic acid]
ATP = 100 uM % Inhibition PF-07247685 (MEK1): 11.2% | ATP = Km % Inhibition PF-07247685 (mixed lineage kinase 1): 6.3% | ATP = Km % Inhibition PF-07247685 (PIK3CD): -7.0% | ATP = 1 mM % Inhibition PF-07247685 (MAPK1): 2.4% | ATP = Km % Inhibition PF-07247685 (MAPK1): 7.0% | ATP = Km % Inhibition PF-07247685 (Rsk1): 2.4% | ATP = 100 uM % Inhibition PF-07247685 (JNK2): 4.3% | ATP = 1 mM % Inhibition PF-07247685 (PDPK1): 2.0% | ATP = Km % Inhibition PF-07247685 (PDPK1): -0.6% | ATP = 1 mM % Inhibition PF-07247685 (MAPKAPK2): 3.3% | ATP = Km % Inhibition PF-07247685 (MAPKAPK2): 2.2% | ATP = 1 mM % Inhibition PF-07247685 [1]: 3.2% | ATP = Km % Inhibition PF-07247685 [1]: 25.5% | ATP = Km % Inhibition PF-07247685 (SPHK1): -82.5% | ATP = 1 mM % Inhibition PF-07247685 (MET): -2.2% | ATP = Km % Inhibition PF-07247685 (MET): -0.3% | ATP = 1 mM % Inhibition PF-07247685 (MARK1): 7.5% | ATP = Km % Inhibition PF-07247685 (MARK1): 4.3% | ATP = Km % Inhibition PF-07247685 (ROCK2): 5.5% | ATP = Km % Inhibition PF-07247685 (CKI-delta): 6.0% | ATP = 1 mM % Inhibition PF-07247685 (FGFR1): 2.1% | ATP = Km % Inhibition PF-07247685 (FGFR1): 8.8% | ATP = Km % Inhibition PF-07247685 (MKNK1): 0.5% | ATP = Km % Inhibition PF-07247685 (MARK3): 2.1% | ATP = 1 mM % Inhibition PF-07247685 (AKT1): -0.8% | ATP = Km % Inhibition PF-07247685 (AKT1): 2.4% | ATP = 100 uM % Inhibition PF-07247685 (JNK1): 2.1% | ATP = 1 mM % Inhibition PF-07247685 (CDK2/Cyclin-A): -1.4% | ATP = Km % Inhibition PF-07247685 (CDK2/Cyclin-A): 1.2% | ATP = 1 mM % Inhibition PF-07247685 (BTK): 3.1% | ATP = Km % Inhibition PF-07247685 (BTK): -0.7% | ATP = Km % Inhibition PF-07247685 (PIK3CG): -4.6%
